In ChEMBL document CHEMBL1145874, “Discovery and SAR of novel, potent and selective protein tyrosine phosphatase 1B inhibitors” (Bioorg Med Chem Lett, 2003):

Legend:
[1] = target: Tyrosine-protein phosphatase non-receptor type 2 (Homo sapiens, UniProt P17706); assay: Inhibition of T-cell Protein Tyrosine Phosphatase (TCPTP)
[2] = target: T1, Receptor-type tyrosine-protein phosphatase C (Homo sapiens, UniProt P08575); assay: Inhibitory potency against CD45 Phosphatase
T1 sequence (P08575 whole entry): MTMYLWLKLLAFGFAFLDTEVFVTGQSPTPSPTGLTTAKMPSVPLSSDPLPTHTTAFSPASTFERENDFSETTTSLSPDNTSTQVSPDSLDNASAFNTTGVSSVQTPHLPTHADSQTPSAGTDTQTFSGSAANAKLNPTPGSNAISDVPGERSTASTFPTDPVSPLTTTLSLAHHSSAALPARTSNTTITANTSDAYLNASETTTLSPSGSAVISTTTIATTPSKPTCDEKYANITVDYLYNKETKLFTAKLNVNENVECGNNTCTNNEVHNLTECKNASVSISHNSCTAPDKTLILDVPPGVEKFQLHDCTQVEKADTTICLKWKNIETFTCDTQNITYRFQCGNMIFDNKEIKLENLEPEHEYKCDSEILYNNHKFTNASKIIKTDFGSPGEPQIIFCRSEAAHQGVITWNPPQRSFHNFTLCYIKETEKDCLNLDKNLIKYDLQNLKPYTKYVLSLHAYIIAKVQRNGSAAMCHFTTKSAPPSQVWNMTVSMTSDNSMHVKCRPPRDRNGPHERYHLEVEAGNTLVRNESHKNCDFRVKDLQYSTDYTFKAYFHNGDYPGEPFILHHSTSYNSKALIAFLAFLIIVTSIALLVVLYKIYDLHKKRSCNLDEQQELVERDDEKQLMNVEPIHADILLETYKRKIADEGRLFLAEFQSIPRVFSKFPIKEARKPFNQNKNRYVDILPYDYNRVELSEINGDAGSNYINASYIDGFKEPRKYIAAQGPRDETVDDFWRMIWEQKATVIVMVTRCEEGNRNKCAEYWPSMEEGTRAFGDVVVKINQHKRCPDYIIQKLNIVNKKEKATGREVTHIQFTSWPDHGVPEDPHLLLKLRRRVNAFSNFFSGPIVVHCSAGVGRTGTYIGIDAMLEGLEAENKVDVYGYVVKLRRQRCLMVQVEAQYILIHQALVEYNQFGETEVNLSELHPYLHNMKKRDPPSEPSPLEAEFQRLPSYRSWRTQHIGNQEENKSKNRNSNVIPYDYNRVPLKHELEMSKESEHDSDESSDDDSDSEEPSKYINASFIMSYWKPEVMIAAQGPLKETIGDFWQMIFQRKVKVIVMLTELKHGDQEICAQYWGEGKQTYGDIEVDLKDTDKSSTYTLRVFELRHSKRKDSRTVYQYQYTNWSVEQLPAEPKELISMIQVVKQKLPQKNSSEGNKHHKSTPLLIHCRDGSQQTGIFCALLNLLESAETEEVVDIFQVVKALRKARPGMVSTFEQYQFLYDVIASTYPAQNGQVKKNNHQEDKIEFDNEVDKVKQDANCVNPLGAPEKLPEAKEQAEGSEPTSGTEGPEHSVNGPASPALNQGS

[3] = target: T2, Tyrosine-protein phosphatase non-receptor type 11 (Homo sapiens, UniProt Q06124); assay: Inhibitory potency against Tyrosine phosphatase SHP2
T2 sequence (Q06124 whole entry): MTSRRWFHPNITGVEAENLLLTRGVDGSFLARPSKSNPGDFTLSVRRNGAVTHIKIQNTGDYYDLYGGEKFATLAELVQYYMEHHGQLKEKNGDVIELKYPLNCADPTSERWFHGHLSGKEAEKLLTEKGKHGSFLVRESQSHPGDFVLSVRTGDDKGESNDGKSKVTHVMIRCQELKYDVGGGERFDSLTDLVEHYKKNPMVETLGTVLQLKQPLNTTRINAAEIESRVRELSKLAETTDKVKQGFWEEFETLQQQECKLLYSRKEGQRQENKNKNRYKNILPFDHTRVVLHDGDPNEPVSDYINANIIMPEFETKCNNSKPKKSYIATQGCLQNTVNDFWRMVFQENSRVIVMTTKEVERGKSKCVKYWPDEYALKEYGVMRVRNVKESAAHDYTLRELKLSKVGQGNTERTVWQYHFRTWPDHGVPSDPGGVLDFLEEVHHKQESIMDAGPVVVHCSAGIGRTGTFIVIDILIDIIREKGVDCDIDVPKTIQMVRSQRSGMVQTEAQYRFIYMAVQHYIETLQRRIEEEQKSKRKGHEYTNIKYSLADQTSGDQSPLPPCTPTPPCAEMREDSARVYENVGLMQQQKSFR

[4] = target: T3, M-phase inducer phosphatase 3 (Homo sapiens, UniProt P30307); assay: Inhibitory potency against Cell division cycle 25 degree C
T3 sequence (P30307 whole entry): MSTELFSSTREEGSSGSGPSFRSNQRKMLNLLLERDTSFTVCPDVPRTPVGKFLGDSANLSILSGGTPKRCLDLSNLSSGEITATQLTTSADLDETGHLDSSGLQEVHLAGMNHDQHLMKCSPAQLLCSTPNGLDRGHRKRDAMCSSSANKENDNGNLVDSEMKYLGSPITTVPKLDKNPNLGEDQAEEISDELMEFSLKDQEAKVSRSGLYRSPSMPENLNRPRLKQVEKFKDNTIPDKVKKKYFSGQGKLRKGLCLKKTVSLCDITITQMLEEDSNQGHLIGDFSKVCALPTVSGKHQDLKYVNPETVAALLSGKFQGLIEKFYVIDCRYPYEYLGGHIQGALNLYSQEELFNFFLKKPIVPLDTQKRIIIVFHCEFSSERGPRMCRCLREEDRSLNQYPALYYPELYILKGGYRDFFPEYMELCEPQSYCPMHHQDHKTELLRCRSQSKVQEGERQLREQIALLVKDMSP

[5] = target: Receptor-type tyrosine-protein phosphatase F (Homo sapiens, UniProt P10586); assay: Inhibitory potency against LAR
Sequence of Receptor-type tyrosine-protein phosphatase F (P10586 whole entry): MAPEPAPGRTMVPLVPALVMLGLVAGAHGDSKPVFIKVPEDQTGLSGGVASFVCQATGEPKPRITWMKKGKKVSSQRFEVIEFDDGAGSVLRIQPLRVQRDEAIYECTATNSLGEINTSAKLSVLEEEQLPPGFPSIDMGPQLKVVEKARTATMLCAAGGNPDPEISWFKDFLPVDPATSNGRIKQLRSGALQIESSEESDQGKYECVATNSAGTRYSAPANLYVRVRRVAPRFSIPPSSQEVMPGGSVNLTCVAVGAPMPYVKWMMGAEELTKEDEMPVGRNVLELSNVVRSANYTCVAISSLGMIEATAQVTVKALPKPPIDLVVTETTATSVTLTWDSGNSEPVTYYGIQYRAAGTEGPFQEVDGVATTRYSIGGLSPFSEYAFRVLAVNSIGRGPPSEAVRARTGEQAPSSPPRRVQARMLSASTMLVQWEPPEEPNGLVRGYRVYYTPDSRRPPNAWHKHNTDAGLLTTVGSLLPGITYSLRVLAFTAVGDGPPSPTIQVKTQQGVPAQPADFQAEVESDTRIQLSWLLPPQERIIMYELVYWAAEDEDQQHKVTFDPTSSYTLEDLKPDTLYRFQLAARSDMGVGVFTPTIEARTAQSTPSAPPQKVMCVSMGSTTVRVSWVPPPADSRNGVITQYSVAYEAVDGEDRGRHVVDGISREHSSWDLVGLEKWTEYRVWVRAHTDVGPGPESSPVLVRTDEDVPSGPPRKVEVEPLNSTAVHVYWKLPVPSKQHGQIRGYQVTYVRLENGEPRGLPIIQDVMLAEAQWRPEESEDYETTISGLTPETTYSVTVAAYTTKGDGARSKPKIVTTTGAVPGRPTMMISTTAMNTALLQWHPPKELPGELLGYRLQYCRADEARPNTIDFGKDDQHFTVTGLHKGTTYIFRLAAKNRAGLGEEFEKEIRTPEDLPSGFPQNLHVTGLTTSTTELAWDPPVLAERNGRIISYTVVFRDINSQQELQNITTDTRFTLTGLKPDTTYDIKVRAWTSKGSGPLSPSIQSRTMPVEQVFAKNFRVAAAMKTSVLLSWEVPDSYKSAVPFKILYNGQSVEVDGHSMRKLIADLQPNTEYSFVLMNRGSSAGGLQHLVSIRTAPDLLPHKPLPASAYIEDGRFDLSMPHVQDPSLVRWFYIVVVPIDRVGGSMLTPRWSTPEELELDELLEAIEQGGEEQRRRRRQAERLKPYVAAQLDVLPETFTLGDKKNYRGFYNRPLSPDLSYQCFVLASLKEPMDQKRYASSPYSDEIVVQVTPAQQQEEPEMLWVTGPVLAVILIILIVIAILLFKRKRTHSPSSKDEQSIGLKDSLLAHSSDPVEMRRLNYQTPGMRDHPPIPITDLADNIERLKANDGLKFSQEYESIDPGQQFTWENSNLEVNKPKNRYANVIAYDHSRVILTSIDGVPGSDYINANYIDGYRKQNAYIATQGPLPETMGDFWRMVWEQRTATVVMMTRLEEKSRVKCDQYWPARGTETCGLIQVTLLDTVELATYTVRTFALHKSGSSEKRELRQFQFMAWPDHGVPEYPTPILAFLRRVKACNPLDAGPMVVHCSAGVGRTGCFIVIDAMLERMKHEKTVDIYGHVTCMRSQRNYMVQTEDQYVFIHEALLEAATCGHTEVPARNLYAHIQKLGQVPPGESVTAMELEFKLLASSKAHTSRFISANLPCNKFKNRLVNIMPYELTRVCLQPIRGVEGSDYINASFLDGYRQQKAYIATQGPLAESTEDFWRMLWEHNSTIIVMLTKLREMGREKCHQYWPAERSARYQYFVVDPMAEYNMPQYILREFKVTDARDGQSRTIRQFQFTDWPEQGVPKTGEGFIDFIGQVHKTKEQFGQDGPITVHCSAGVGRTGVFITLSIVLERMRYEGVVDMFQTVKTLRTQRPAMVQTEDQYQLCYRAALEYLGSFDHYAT

[6] = target: T4, Tyrosine-protein phosphatase non-receptor type 1 (Homo sapiens, UniProt P18031); assay: Inhibition of Protein-tyrosine phosphatase 1B (PTP1B)
T4 sequence (P18031 whole entry): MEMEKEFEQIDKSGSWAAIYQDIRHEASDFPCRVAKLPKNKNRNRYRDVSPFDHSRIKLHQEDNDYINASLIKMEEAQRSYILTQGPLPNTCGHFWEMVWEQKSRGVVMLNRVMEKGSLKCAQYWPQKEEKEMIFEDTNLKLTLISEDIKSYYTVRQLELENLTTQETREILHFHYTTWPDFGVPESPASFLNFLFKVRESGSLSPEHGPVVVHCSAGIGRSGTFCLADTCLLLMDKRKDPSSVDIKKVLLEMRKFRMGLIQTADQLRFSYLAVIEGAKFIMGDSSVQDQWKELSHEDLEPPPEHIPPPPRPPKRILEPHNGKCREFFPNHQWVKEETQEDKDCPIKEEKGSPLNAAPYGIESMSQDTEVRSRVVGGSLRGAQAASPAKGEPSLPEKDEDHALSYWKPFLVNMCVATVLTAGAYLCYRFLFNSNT

Sequence of Tyrosine-protein phosphatase non-receptor type 2 (P17706 whole entry, looked up): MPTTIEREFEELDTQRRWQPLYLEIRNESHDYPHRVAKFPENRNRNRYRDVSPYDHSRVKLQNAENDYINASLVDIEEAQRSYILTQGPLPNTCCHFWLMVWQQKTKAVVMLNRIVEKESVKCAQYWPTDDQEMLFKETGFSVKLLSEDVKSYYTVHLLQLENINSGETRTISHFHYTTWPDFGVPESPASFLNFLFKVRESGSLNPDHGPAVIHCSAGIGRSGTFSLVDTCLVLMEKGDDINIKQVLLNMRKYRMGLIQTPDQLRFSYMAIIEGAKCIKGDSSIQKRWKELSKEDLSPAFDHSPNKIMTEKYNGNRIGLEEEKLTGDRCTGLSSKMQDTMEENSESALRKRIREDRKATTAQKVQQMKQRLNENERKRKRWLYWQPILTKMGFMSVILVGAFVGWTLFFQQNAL

Row | Ki [1] [µM] | Ki [2] [µM] | Ki [3] [µM] | Ki [4] [µM] | Ki [5] [µM] | Ki [6] [µM] | SMILES
1 | 24.8 | > 30 | > 30 | > 30 | > 30 | – | COC(=O)c1c(O)cccc1OCCCCNC(=O)C(Cc1ccc(OC(C(=O)O)C(=O)O)cc1)NC(=O)OC(C)(C)C (stereo unspecified)
2 | > 200 | – | – | – | – | > 200 | COC(=O)c1c(O)cccc1OCCCCNC(=O)[C@H](Cc1ccc(N(CCC(=O)O)C(=O)C(=O)O)cc1)NC(=O)OC(C)(C)C
3 | > 200 | – | – | – | – | 8.4 | COC(=O)c1c(O)cccc1OCCCCNC(=O)C(Cc1ccc(OC(C(=O)O)C(=O)NC2CC2)cc1)NC(=O)OC(C)(C)C (stereo unspecified)
4 | > 200 | – | – | – | – | 220 | COC(=O)c1c(O)cccc1OCCCCNC(=O)[C@H](Cc1ccc(OCC(=O)O)cc1)NC(=O)OC(C)(C)C
5 | 273 | – | – | – | – | 48.6 | COC(=O)c1c(O)cccc1OCCCCNC(=O)[C@H](Cc1ccc(OC(C)C(=O)O)c(C(=O)O)c1)NC(=O)OC(C)(C)C (stereo partly specified)
6 | 9 | > 30 | > 30 | > 30 | > 30 | 1.7 | CCC(CN(C(=O)C(=O)O)c1ccc(C[C@H](NC(=O)OC(C)(C)C)C(=O)NCCCCOc2cccc(O)c2C(=O)OC)cc1)C(=O)O (stereo partly specified)
7 | > 30 | – | – | – | – | 2.1 | COC(=O)c1c(O)cccc1OCCCCNC(=O)[C@H](Cc1ccc(OCC(=O)O)c(C(=O)O)c1)NC(=O)OC(C)(C)C
8 | 1.97 | > 30 | > 30 | > 30 | > 30 | 0.16 | COC(=O)c1c(O)cccc1OCCCCNC(=O)[C@H](Cc1ccc(OC(C)C(=O)O)c(C(=O)O)c1)NC(=O)[C@H](Cc1ccccc1)NC(=O)OC(C)(C)C (stereo partly specified)
9 | 16.7 | – | – | – | – | 3.2 | COC(=O)c1c(O)cccc1OCCCCNC(=O)[C@H](Cc1ccc(N(CC(C)C(=O)O)C(=O)C(=O)O)cc1)NC(=O)OC(C)(C)C (stereo partly specified)
10 | 129 | – | – | – | – | 9.4 | COC(=O)c1c(O)cccc1OCCCCNC(=O)[C@H](Cc1ccc(OCC(=O)O)c(C(=O)O)c1)NC(C)=O
11 | 97.8 | – | – | – | – | 15.2 | COC(=O)c1c(O)cccc1OCCCCNC(=O)[C@H](Cc1ccc(N(CC(C(=O)O)c2ccccc2)C(=O)C(=O)O)cc1)NC(=O)OC(C)(C)C (stereo partly specified)
12 | – | – | – | – | – | 1.8 | CCC(CC(=O)O)N(C(=O)C(=O)O)c1ccc(C[C@H](NC(=O)OC(C)(C)C)C(=O)NCCCCOc2cccc(O)c2C(=O)OC)cc1 (stereo partly specified)
13 | 79.5 | – | – | – | – | 13.8 | COC(=O)c1c(O)cccc1OCCCCNC(=O)C(Cc1ccc(OC(C(N)=O)C(=O)O)cc1)NC(=O)OC(C)(C)C (stereo unspecified)
